Source: PubChem BioAssay (NCI)
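Method: 48-hour compound exposure of cells in 96-well plates, five concentrations, linear interpolation of endpoints. TGI marks complete inhibition of growth.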

Tests used:
Experiment in all cases: NCI-60 cell line screen, 48 h
OVCAR-8 ovarian = tested on: OVCAR-8 ovarian
LOX IMVI melanoma = tested on: LOX IMVI melanoma
IGROV1 ovarian = tested on: IGROV1 ovarian
SF-268 CNS = tested on: SF-268 CNS
UACC-257 melanoma = tested on: UACC-257 melanoma
A549 NSCLC = tested on: A549 NSCLC
HCT-15 colon = tested on: HCT-15 colon
OVCAR-5 ovarian = tested on: OVCAR-5 ovarian
RXF 393 renal = tested on: RXF 393 renal
U251 CNS = tested on: U251 CNS
HCC-2998 colon = tested on: HCC-2998 colon
K-562 leukemia = tested on: K-562 leukemia
ACHN renal = tested on: ACHN renal
TK-10 renal = tested on: TK-10 renal
UO-31 renal = tested on: UO-31 renal
MALME-3M melanoma = tested on: MALME-3M melanoma
OVCAR-4 ovarian = tested on: OVCAR-4 ovarian
RXF-631 renal = tested on: RXF-631 renal
DLD-1 colon = tested on: DLD-1 colon
SK-MEL-28 melanoma = tested on: SK-MEL-28 melanoma
HOP-18 NSCLC = tested on: HOP-18 NSCLC
OVCAR-3 ovarian = tested on: OVCAR-3 ovarian
RPMI-8226 leukemia = tested on: RPMI-8226 leukemia
NCI-H23 lung = tested on: NCI-H23 lung
SNB-75 CNS = tested on: SNB-75 CNS
786-0 renal = tested on: 786-0 renal
EKVX NSCLC = tested on: EKVX NSCLC
DMS 114 small cell lung = tested on: DMS 114 small cell lung
CAKI-1 renal = tested on: CAKI-1 renal
KM12 colon = tested on: KM12 colon
CCRF-CEM leukemia = tested on: CCRF-CEM leukemia
DMS 273 small cell lung = tested on: DMS 273 small cell lung
SK-MEL-2 melanoma = tested on: SK-MEL-2 melanoma
SW-620 colon = tested on: SW-620 colon
SNB-78 CNS = tested on: SNB-78 CNS
XF 498 CNS = tested on: XF 498 CNS
SF-539 CNS = tested on: SF-539 CNS
A498 renal = tested on: A498 renal
COLO 205 colon = tested on: COLO 205 colon
HT29 colon = tested on: HT29 colon
SN12C renal = tested on: SN12C renal
KM20L2 colon = tested on: KM20L2 colon
UACC-62 melanoma = tested on: UACC-62 melanoma
MOLT-4 leukemia = tested on: MOLT-4 leukemia
M19-MEL melanoma = tested on: M19-MEL melanoma
LXFL 529 NSCLC = tested on: LXFL 529 NSCLC
HOP-62 NSCLC = tested on: HOP-62 NSCLC
M14 melanoma = tested on: M14 melanoma
SF-295 CNS = tested on: SF-295 CNS
SK-OV-3 ovarian = tested on: SK-OV-3 ovarian
SNB-19 CNS = tested on: SNB-19 CNS
SK-MEL-5 melanoma = tested on: SK-MEL-5 melanoma
NCI-H460 lung = tested on: NCI-H460 lung
SR leukemia = tested on: SR leukemia
HL-60(TB) leukemia = tested on: HL-60(TB) leukemia

N#CC1=C(c2ccccc2)OC2(N)OC(c3ccccc3)=C(C#N)C12C#N (configuration not stated)
TGI (OVCAR-8 ovarian): > 100 µM | TGI (LOX IMVI melanoma): > 100 µM | TGI (IGROV1 ovarian): > 100 µM | TGI (SF-268 CNS): > 100 µM | TGI (UACC-257 melanoma): > 100 µM | TGI (A549 NSCLC): > 100 µM | TGI (HCT-15 colon): > 100 µM | TGI (OVCAR-5 ovarian): > 100 µM | TGI (RXF 393 renal): > 100 µM | TGI (U251 CNS): > 100 µM | TGI (HCC-2998 colon): > 100 µM | TGI (K-562 leukemia): > 100 µM | TGI (ACHN renal): > 100 µM | TGI (TK-10 renal): > 100 µM | TGI (UO-31 renal): > 100 µM | TGI (MALME-3M melanoma): > 100 µM | TGI (OVCAR-4 ovarian): > 100 µM | TGI (RXF-631 renal): > 100 µM | TGI (DLD-1 colon): > 100 µM | TGI (SK-MEL-28 melanoma): > 100 µM | TGI (HOP-18 NSCLC): 75.1 µM | TGI (OVCAR-3 ovarian): > 100 µM | TGI (RPMI-8226 leukemia): > 100 µM | TGI (NCI-H23 lung): > 100 µM | TGI (SNB-75 CNS): > 100 µM | TGI (786-0 renal): > 100 µM | TGI (EKVX NSCLC): > 100 µM | TGI (DMS 114 small cell lung): > 100 µM | TGI (CAKI-1 renal): > 100 µM | TGI (KM12 colon): > 100 µM | TGI (CCRF-CEM leukemia): > 100 µM | TGI (DMS 273 small cell lung): > 100 µM | TGI (SK-MEL-2 melanoma): > 100 µM | TGI (SW-620 colon): > 100 µM | TGI (SNB-78 CNS): > 100 µM | TGI (XF 498 CNS): > 100 µM | TGI (SF-539 CNS): > 100 µM | TGI (A498 renal): > 100 µM | TGI (COLO 205 colon): > 100 µM | TGI (HT29 colon): > 100 µM | TGI (SN12C renal): > 100 µM | TGI (KM20L2 colon): > 100 µM | TGI (UACC-62 melanoma): > 100 µM | TGI (MOLT-4 leukemia): > 100 µM | TGI (M19-MEL melanoma): > 100 µM | TGI (LXFL 529 NSCLC): > 100 µM | TGI (HOP-62 NSCLC): > 100 µM | TGI (M14 melanoma): > 100 µM | TGI (SF-295 CNS): > 100 µM | TGI (SK-OV-3 ovarian): > 100 µM | TGI (SNB-19 CNS): > 100 µM | TGI (SK-MEL-5 melanoma): > 100 µM | TGI (NCI-H460 lung): > 100 µM

CC(C)(C)OC1=C(OC(C)(C)C)C(O)(c2ccc(Cl)cc2)C1=O (configuration not stated)
TGI (OVCAR-8 ovarian): > 100 µM | TGI (LOX IMVI melanoma): > 100 µM | TGI (IGROV1 ovarian): > 100 µM | TGI (SR leukemia): > 100 µM | TGI (SF-268 CNS): > 100 µM | TGI (A549 NSCLC): > 100 µM | TGI (HCT-15 colon): > 100 µM | TGI (HL-60(TB) leukemia): > 100 µM | TGI (OVCAR-5 ovarian): > 100 µM | TGI (RXF 393 renal): > 100 µM | TGI (U251 CNS): > 100 µM | TGI (HCC-2998 colon): > 100 µM | TGI (K-562 leukemia): > 100 µM | TGI (ACHN renal): > 100 µM | TGI (TK-10 renal): > 100 µM | TGI (UO-31 renal): > 100 µM | TGI (MALME-3M melanoma): > 100 µM | TGI (OVCAR-4 ovarian): > 100 µM | TGI (RXF-631 renal): > 100 µM | TGI (DLD-1 colon): > 100 µM | TGI (SK-MEL-28 melanoma): > 100 µM | TGI (HOP-18 NSCLC): > 100 µM | TGI (OVCAR-3 ovarian): > 100 µM | TGI (RPMI-8226 leukemia): > 100 µM | TGI (NCI-H23 lung): > 100 µM | TGI (SNB-75 CNS): > 100 µM | TGI (786-0 renal): > 100 µM | TGI (EKVX NSCLC): > 100 µM | TGI (DMS 114 small cell lung): > 100 µM | TGI (KM12 colon): > 100 µM | TGI (CCRF-CEM leukemia): > 100 µM | TGI (DMS 273 small cell lung): > 100 µM | TGI (SW-620 colon): > 100 µM | TGI (SNB-78 CNS): > 100 µM | TGI (SF-539 CNS): > 100 µM | TGI (A498 renal): > 100 µM | TGI (COLO 205 colon): > 100 µM | TGI (HT29 colon): > 100 µM | TGI (SN12C renal): > 100 µM | TGI (UACC-62 melanoma): > 100 µM | TGI (MOLT-4 leukemia): > 100 µM | TGI (M19-MEL melanoma): > 100 µM | TGI (LXFL 529 NSCLC): > 100 µM | TGI (M14 melanoma): > 100 µM | TGI (SF-295 CNS): > 100 µM | TGI (SK-OV-3 ovarian): > 100 µM | TGI (SNB-19 CNS): > 100 µM | TGI (SK-MEL-5 melanoma): > 100 µM | TGI (NCI-H460 lung): > 100 µM
